Laboratory results published in US7071231B2, “Naphthalene ureas as glucose uptake enhancers” (Telik, Inc., priority 1999, dated 2006).

Legend:
CYP3A4 = CYP3A4 (Homo sapiens, UniProt P08684); assay: P450 interactions: CYP3A4 inhibition; assay type: in vitro ADME; conditions: human cytochromes P450
Source text: (§1) A major pathway for elimination of drugs from the body, which may limit their effectiveness, is the cytochrome P450 system of the liver.

[1] = Distribution of compound-[14C]-15 after oral administration; assay type: in vivo, rat; conditions: STZ/HFD rats, single oral dose 30 mg/kg 14C-labeled, two hours later
Experimental: Distribution of Compound-[14C]-15 After Oral Administration
STZ/HFD rats, prepared as in Example 19, were given a single oral dose of 30 mg/kg compound-[14C]-15 labeled with 50 μCi of 14C prepared as in Example 11A. Two hours later the animals were euthanized and 200 mg samples of various tissues were removed by an IACUC-approved protocol. The tissue samples were homogenized and their radioactivity content was measured by scintillation counting. The highest levels of radioactivity were found in the pancreas, liver, and thigh muscle. These corresponded to Compound 15 concentrations of approximately 780 nM, 200 nM, and 175 nM, respectively. These concentrations would be sufficient to produce insulin receptor phosphorylation in vitro. Lower levels of radioactivity indicative of 50 nM to 100 nM concentrations of the compound were found in abdominal muscle, fat, kidney, and spleen.

EGFR = molecular target: T1, EGFR (Homo sapiens, UniProt P00533); assay: Selectivity: EGFR phosphorylation in A431 cells; assay type: cell-based; conditions: in the presence or absence of EGF (2.5 ng/ml)
T1 construct: endogenous in cells; host or cells: A431
T1 sequence (P00533 25-1210): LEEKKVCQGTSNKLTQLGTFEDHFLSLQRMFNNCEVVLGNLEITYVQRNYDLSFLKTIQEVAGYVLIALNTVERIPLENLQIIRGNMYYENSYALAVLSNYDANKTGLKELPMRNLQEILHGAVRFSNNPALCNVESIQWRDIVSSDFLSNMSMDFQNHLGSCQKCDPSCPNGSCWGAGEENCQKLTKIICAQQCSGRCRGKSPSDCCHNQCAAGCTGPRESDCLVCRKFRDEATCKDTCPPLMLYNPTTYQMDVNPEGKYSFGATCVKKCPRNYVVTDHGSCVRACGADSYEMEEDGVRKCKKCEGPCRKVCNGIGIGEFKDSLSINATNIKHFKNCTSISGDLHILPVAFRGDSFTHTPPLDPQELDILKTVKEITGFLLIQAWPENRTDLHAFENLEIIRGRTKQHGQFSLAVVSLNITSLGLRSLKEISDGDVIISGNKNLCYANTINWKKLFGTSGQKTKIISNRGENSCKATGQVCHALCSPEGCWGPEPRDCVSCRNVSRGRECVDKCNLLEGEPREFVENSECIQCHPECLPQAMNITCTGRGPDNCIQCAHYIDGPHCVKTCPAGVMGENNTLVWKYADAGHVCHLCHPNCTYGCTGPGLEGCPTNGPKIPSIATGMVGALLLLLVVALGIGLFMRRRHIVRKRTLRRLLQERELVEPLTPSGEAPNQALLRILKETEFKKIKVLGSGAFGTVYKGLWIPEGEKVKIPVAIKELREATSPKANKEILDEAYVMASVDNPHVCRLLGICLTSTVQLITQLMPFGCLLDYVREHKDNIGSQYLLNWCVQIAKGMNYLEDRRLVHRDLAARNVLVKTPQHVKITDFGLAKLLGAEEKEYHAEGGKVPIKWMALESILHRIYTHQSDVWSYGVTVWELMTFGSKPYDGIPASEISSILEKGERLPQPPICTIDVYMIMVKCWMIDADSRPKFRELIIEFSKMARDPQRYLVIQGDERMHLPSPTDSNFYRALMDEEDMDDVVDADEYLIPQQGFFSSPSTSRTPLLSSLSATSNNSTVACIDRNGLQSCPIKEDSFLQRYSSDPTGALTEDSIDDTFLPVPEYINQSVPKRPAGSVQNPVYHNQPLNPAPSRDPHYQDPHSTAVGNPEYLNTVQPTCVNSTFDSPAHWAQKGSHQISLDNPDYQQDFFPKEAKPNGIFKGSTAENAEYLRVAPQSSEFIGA
Experimental: Selectivity vs. EGFR, PDGFR and IGFR
In order to determine the selectivity of these compounds for the insulin receptor, their effects on other receptors that share a similar mechanism of activation with the insulin receptor were examined. Human epidermoid carcinoma (A431) cells were plated at a density of 2×10^5 cells per well in 6-well dishes in DMEM with 10% FBS and L-Glutamine and allowed to grow to 75% confluence. Prior to the experiment, the cells were serum-starved overnight with DMEM with 0.1% BSA. The following morning, the cells were washed with PBS and the medium was replaced with 150 mM NaCl, 1.7 mM KCl, 0.9 mM CaCl2, K2HPO4 (pH 7.4), to which was added either the experimental compound or its vehicle (DMSO). Epidermal Growth Factor (EGF) or its vehicle (0.01% BSA) was diluted in the assay buffer (containing test compound or vehicle respectively) to a final concentration of 2.5 ng/ml. After incubating for 15 min, the cells were washed with cold PBS twice and lysed in 50 mM Tris.HCl pH 7.4, 150 mM NaCl, 0.25% sodium deoxycholate, 1% NP40, 1 mM EGTA, 1 mM PMSF, 1 mM Na3VO4, 1 mM NaF, 1 ug/ml each of Aprotinin, Leupeptin and Pepstatin. The cell lysates were clarified by centrifugation at 12000 rpm, and the supernatants were estimated for protein concentration. […]

db/db mouse = assay: Blood glucose level determination in db/db mouse; assay type: in vivo; conditions: compound intraperitoneally, with or without 0.01U insulin s.c.; 0-4 hr (FIGS. 8 and 9)
Experimental: Blood Glucose Level Determination in db/db Mouse.
An accepted model for Type 2 diabetes which has been used to establish the potential anti-diabetic activity of compounds is the db/db mouse. Seven to 9 week old male db/db mice (Jackson Laboratories, Bar Harbor, Me.), were used to the study of the effects of compounds on blood glucose levels. Animals were kept in a 12 h/12 h light/dark cycle, and experiments were initiated immediately after the dark period (7:00 a.m.). Food was removed at this time and returned after the final blood glucose measurement was taken.
Insulin (0.5U/ml, Humulin R, Catalog HI-201, Lilly, Indianapolis, Ind.) was prepared by diluting 100U/mL stock insulin 1:200 with PBS (phosphate buffered saline, Gibco, BRL). Compounds were prepared in a vehicle of either PBS or 20% DMSO in PBS.
Five to 10 animals (average weight 40–50 g) were used in each treatment condition. The animals were injected subcutaneously with either 0.01U insulin in PBS or PBS alone, followed by 0.1 mL of compound or its vehicle delivered intraperitoneally. Blood samples were taken 0 min, 15 min, 30 min, 1 hr, 2 hr and 4 hr after the administration of the drug or vehicle by tail bleeding. Glucose measurements were made with a Glucometer and Glucose strips (Bayer). […]

CYP2C9 = CYP2C9 (Homo sapiens, UniProt P11712); assay: P450 interactions: CYP2C9 inhibition; assay type: in vitro ADME; conditions: human cytochromes P450
CYP2C9, sequence (P11712 whole entry): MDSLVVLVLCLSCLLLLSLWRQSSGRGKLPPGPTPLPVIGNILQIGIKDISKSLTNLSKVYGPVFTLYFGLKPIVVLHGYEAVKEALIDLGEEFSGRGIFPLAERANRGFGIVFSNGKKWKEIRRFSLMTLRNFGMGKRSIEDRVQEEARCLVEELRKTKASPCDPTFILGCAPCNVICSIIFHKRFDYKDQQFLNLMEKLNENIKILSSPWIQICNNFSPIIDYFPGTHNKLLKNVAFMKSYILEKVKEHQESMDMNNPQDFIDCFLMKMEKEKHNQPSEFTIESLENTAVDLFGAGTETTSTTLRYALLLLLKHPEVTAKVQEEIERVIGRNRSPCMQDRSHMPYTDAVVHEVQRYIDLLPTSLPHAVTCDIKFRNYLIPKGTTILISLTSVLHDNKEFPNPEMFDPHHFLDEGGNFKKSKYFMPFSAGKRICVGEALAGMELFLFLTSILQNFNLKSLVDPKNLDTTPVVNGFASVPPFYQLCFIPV
Source text: as §1

CYP3A4, sequence (P08684 whole entry): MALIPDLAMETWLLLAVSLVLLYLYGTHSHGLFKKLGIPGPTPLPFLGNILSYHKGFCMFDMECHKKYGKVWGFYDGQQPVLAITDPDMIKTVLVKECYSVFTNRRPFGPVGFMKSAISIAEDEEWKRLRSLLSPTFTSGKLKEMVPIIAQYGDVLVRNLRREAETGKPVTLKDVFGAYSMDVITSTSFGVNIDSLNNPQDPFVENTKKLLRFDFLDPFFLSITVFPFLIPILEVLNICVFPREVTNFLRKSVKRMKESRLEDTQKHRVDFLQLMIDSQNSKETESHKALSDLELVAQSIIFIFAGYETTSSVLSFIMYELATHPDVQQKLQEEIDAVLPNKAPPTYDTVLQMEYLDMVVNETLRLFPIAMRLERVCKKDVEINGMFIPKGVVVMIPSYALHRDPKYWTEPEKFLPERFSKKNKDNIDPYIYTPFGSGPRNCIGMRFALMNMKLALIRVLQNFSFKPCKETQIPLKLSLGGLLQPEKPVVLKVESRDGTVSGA

## O=C(Nc1ccc2c(O)cc(S(=O)(=O)Nc3cccc(S(=O)(=O)O)c3)cc2c1)Nc1ccc2c(O)cc(S(=O)(=O)Nc3cccc(S(=O)(=O)O)c3)cc2c1 [Compound 15, 3-{[(4-hydroxy-7-{[N-(5-hydroxy-7-{[(3-sulfophenyl)amino]sulfonyl}(2-naphthyl))carbamoyl]amino}-2-naphthyl)sulfonyl]amino}benzenesulfonic acid]
CYP3A4
  inhibition of catalytic activity of CYP3A4: did not inhibit
[1]
  amount of radioactivity in the blood: not above background levels
  tissue concentration, liver: ~200 nM
  tissue concentration, pancreas: approximately 780 nM
  tissue concentration, thigh muscle: ~175 nM
EGFR
  phosphorylation of EGFR: did not increase the phosphorylation of EGFR
db/db mouse
  blood glucose levels in db/db mice: acts in an insulin-independent manner to lower blood glucose levels
CYP2C9
  inhibition of catalytic activity of CYP2C9: did not inhibit
